How the values were obtained:
[1] = system: patient's CTC-derived organoid cultures; assay: Drug sensitivity assay of CTC-derived organoid cultures (CellTiter Glo ATP, relative cell viability); format: cell-based, human; settings: for CTC sensitivity profiling: CTCs of patient; for relative cell viability: CTC-derived organoid cultures of patient, one week co-culture
From the text: In some embodiments, first, a liquid biopsy of the patient is obtained, and CTCs are then isolated from the liquid biopsy, and the CTCs are then expanded to obtain the CTC-derived organoid cultures. The liquid biopsy is, for example, a blood sample, such as a peripheral venous blood sample. In one example, the CTCs were isolated from the liquid biopsy, and the biomimetic cell culture system was then used to expand the CTCs in vitro to form the CTC-derived organoid cultures. In one example, Ficoll-Paque centrifugation was used to isolate peripheral blood mononuclear cells (PBMCs) containing the CTCs from the blood sample. The cells were then seeded onto a substrate of binary colloidal crystal (BCC) containing silica and polymethyl methacrylate (PMMA), and cultured in the biomimetic cell culture system for three weeks, with replacement of culture medium every four days. The expansion of the organoid cultures could be monitored by optical microscopy, and the presence of the CTCs could be confirmed by EpCAM and CD45 immunofluorescence staining. The CTC-derived organoid cultures were positive for EpCAM and negative for CD45 in the immunofluorescence staining
In one example, the CTC-derived organoid cultures were resuspended in a culture medium, and then divided into aliquots and loaded to 96-well plates for drug sensitivity assays. The aliquots were divided into a control group (not reacted with a drug) and drug test groups (respectively reacted with different drugs). For advanced pancreatic ductal adenocarcinoma, gemcitabine, 5-fluorouracil (5-FU), erlotinib, irinotecan, olaparib, oxaliplatin, paclitaxel, palbociclib and trametinib were selected as candidate drugs and tested against the CTC-derived organoid cultures at concentrations according to the clinical pharmacokinetics of each of the drugs, in order to mimic the effect of a clinical dose in patients. Different drug treatments were respectively added to each of the wells in the 96-well plates, after which cultures were continued to co-culture for one week. At the end of the assay period, viable cell counts were measured using cytosolic adenosine triphosphate (ATP) abundance (CellTiter Glo, Promega, Madison Wis., USA) via a luminometer (Promega). The relative cell viabilities of the CTC-derived organoid cultures respectively corresponding to the 9 candidate drugs were calculated by the formula: relative cell viability=(viable cell counts of the drug test group/viable cell counts of the control group)×100%. Lower cell viability following application of test treatments was indicative of greater drug sensitivity and better anti-tumor effect. However, the present disclosure is not limited to the above example, and other test methods or calculation methods can be used to obtain the relative cell viabilities.

pancreatic cancer = assay: Clinical course of individual pancreatic cancer patients under treatment; format: in vivo, human; settings: patient
Protocol: In one example, clinical response to treatment in patients was evaluated using Response Evaluation Criteria in Solid Tumors (RECIST) version 1.1 criteria.

[2] = locally advanced pancreatic cancer
[3] = August 2019, 12 cycles of chemotherapy plus radiotherapy 44 Gy/20 Fx

For `O=c1[nH]cc(F)c(=O)[nH]1` [5-FU, 5-fluorouracil], the CTC sensitivity profiling [1, 2] was “resistance”.
Work on `C#Cc1cccc(Nc2ncnc3cc(OCCOC)c(OCCOC)cc23)c1` [erlotinib] yielded a relative cell viability ([1]; locally advanced pancreatic cancer, clinical-PK concentration) of 27.8%.
With `CC(=O)O[C@H]1C(=O)[C@@]2(C)[C@H]([C@H](OC(=O)c3ccccc3)[C@]3(O)C[C@H](OC(=O)[C@H](O)[C@@H](NC(=O)c4ccccc4)c4ccccc4)C(C)=C1C3(C)C)[C@]1(OC(C)=O)CO[C@@H]1C[C@@H]2O` [paclitaxel] the CTC sensitivity profiling [1, 2] was “resistance”.
With `O=C(c1cc(Cc2n[nH]c(=O)c3ccccc23)ccc1F)N1CCN(C(=O)C2CC2)CC1` [olaparib] the relative cell viability ([1]; metastatic pancreatic cancer) was 16.7%.
`CCc1c2c(nc3ccc(OC(=O)N4CCC(N5CCCCC5)CC4)cc13)-c1cc3c(c(=O)n1C2)COC(=O)[C@]3(O)CC` [irinotecan] was tested, and the CTC sensitivity profiling [1, 2] was “resistance”.
With FOLFIRINOX the “abdominal CT scan response, liver metastases” value (pancreatic cancer; [3]) was “partial response (PR)”, the “abdominal CT scan response, pancreatic mass” value (pancreatic cancer; [3]) was “stable disease (SD)” and the “follow-up CT scan response, pancreatic tumor” value (pancreatic cancer; November 2019, with liver, bone and peritoneal seeding) was “progressive disease (PD)”.
With `O=C1[O][Pt]2([NH][C@@H]3CCCC[C@H]3[NH]2)[O]C1=O` [oxaliplatin] the CTC sensitivity profiling [1, 2] was “resistance”.
